Molecular target: GBA1 (Homo sapiens (Human), UniProt P04062)
Experiment: Kinetic constants of GBA1 inhibition (Table 2)
Assay type: biochemical
Conditions: Table 2 kinetic constants

Chain of GBA1 (P04062 40-536): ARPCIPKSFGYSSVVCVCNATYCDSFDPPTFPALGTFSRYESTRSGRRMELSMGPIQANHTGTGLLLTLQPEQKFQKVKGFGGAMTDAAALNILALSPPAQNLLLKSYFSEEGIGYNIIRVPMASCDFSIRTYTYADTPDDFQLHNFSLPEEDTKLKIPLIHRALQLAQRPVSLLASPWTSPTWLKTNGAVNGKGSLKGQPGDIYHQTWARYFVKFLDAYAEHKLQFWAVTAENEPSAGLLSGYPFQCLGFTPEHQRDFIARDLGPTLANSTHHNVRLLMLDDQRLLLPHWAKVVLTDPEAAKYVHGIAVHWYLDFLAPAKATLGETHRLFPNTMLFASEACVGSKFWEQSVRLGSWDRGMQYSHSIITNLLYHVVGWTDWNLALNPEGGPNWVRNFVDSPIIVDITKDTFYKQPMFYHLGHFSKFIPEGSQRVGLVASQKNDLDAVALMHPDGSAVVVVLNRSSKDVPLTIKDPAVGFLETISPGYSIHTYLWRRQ

Work on [N-]=[N+]=NC[C@@H]1[C@@H](O)[C@H](O)[C@@H](O)[C@@H]2O[C@H]12 [KY170, (2S,3R,4S,5S)-8-azido-8-deoxy-cyclophellitol] yielded a ki of 0.0237 min⁻¹.
